target: T1, recombinant His-tagged cytoplasmic domains of TRKA receptor (NTRK1, PV3144, aa 441-796) (Homo sapiens, UniProt P04629); test: Isolated TRK enzyme assay (HTRF KinEASE-TK, PV3144 TrkA enzyme assay); assay type: biochemical; conditions: 4 nM enzyme, 40 uM ATP, 35 min, arithmetic mean where more than one reading
T1 construct: aa 441-796; His; purchased Invitrogen PV3144
In short: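 Enzyme and ATP were preincubated with compound for 20 min at room temperature in buffer with 10 mM MgCl and 2 mM DTT. TK-substrate-Biotin was then added (1 uM final) and the reaction run for an enzyme-specific optimized time. Phosphorylation was read by HTRF, and IC50 values came from sigmoid fits of percent inhibition normalized to plate controls, averaged over replicate readings.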

T1 sequence (P04629 441-796): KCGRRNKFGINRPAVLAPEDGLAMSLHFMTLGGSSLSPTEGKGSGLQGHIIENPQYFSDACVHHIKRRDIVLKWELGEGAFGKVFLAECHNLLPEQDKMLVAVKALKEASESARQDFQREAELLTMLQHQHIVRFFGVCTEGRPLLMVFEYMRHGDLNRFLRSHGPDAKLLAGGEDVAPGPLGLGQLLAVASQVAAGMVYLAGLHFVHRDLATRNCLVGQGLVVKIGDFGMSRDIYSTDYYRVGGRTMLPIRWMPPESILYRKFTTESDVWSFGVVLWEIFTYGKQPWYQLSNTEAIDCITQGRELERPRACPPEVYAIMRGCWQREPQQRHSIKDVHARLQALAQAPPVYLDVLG

IC50	Compound
19.4 nM	Cc1n[nH]c(C)c1-c1cnc(O[C@H]2CCN(C(=O)Cc3ccc(OC4CC4)cn3)C[C@@H]2F)c(C(N)=O)c1 [Example 167, 2-{[(3S,4S)-1-{[5-(cyclopropyloxy)pyridin-2-yl]acetyl}-3-fluoropiperidin-4-yl]oxy}-5-(3,5-dimethyl-1H-pyrazol-4-yl)pyridine-3-carboxamide]
17.3 nM	Cn1cnc(-c2ccc(OC3CCN(C(=O)Cc4ccc(OC(C)(F)F)cn4)CC3)c(C(N)=O)c2)c1 [Example 168, 2-[(1-{[5-(1,1-difluoroethoxy)pyridin-2-yl]acetyl}piperidin-4-yl)oxy]-5-(1-methyl-1H-imidazol-4-yl)benzamide]
11.4 nM	Cn1cc(-c2ccc(OC3CCN(C(=O)Cc4ccc(OC5CC5)cn4)CC3)c(C(N)=O)c2)cn1 [Example 173, 2-[(1-{[5-(cyclopropyloxy)pyridin-2-yl]acetyl}piperidin-4-yl)oxy]-5-(1-methyl-1H-pyrazol-4-yl)benzamide]
12.2 nM	NC(=O)c1cc(-c2cnn(CCO)c2)cnc1OC1CCN(C(=O)Cc2ccc(OC3CC3)cc2)CC1 [Example 176, 2-[(1-{[4-(cyclopropyloxy)phenyl]acetyl}piperidin-4-yl)oxy]-5-[1-(2-hydroxyethyl)-1H-pyrazol-4-yl]pyridine-3-carboxamide]
13.2 nM	Cc1nc[nH]c1-c1cnc(OC2CCN(C(=O)Cc3ccc(OC(F)(F)F)cc3)CC2)c(C(N)=O)c1 [Example 179, 5-(4-methyl-1H-imidazol-5-yl)-2-[(1-{[4-(trifluoromethoxy)phenyl]acetyl}piperidin-4-yl)oxy]pyridine-3-carboxamide]
7.12 nM	NC(=O)c1cc(-c2c[nH]c(C(F)(F)F)n2)cnc1O[C@@H]1CCN(C(=O)Cc2ccc(OC(F)(F)F)cc2)C[C@@H]1F [Example 183, 2-{[(3S,4R)-3-fluoro-1-{[4-(trifluoromethoxy)phenyl]acetyl}piperidin-4-yl]oxy}-5-[2-(trifluoromethyl)-1H-imidazol-4-yl]pyridine-3-carboxamide]

The next lines start with the compound.

Compound	IC50
CS(=O)(=O)Cn1cc(-c2cc(C(N)=O)c(O[C@H]3CCN(C(=O)Cc4ccc(OC(F)(F)F)cc4)C[C@@H]3F)cn2)cn1 [Example 166, 5-{[(3S,4S)-3-fluoro-1-{[4-(trifluoromethoxy)phenyl]acetyl}piperidin-4-yl]oxy}-2-{1-[(methylsulfonyl)methyl]-1H-pyrazol-4-yl}pyridine-4-carboxamide]	12.8 nM
NC(=O)c1cc(-c2cn[nH]c2)ncc1OC1CCN(C(=O)Cc2ccc(OC(F)(F)F)c(F)c2)CC1 [Example 169, 5-[(1-{[3-fluoro-4-(trifluoromethoxy)phenyl]acetyl}piperidin-4-yl)oxy]-2-(1H-pyrazol-4-yl)pyridine-4-carboxamide]	11.8 nM
Cc1cc(OC2CCN(C(=O)Cc3ccc(OC(F)(F)F)cc3)CC2)c(C(N)=O)cc1-c1cn(C)cn1 [Example 170, 4-methyl-5-(1-methyl-1H-imidazol-4-yl)-2-[(1-{[4-(trifluoromethoxy)phenyl]acetyl}piperidin-4-yl)oxy]benzamide]	17.6 nM
NC(=O)c1cc(-c2cn(CCO)nn2)ccc1OC1CCN(C(=O)Cc2ccc(OC(F)(F)F)cc2)CC1 [Example 174, 5-[1-(2-hydroxyethyl)-1H-1,2,3-triazol-4-yl]-2-[(1-{[4-(trifluoromethoxy)phenyl]acetyl}piperidin-4-yl)oxy]benzamide]	19.1 nM
NC(=O)c1cc(-c2cnn(CCO)c2)ncc1OC1CCN(C(=O)Cc2ccc(OC(F)(F)F)cc2)CC1 [Example 175, 2-[1-(2-hydroxyethyl)-1H-pyrazol-4-yl]-5-[(1-{[4-(trifluoromethoxy)phenyl]acetyl}piperidin-4-yl)oxy]pyridine-4-carboxamide]	17.1 nM
NC(=O)c1cc(-c2cc[nH]n2)ccc1OC1CCN(C(=O)Cc2ccc(OC(F)(F)F)cc2)CC1 [Example 177, 5-(1H-pyrazol-3-yl)-2-[(1-{[4-(trifluoromethoxy)phenyl]acetyl}piperidin-4-yl)oxy]benzamide]	12.3 nM
Cn1cc(-c2ccc(OC3CCN(C(=O)Cc4ccc(OC5CC5)cc4)CC3)c(C(N)=O)c2)cn1 [Example 178, 2-[(1-{[4-(cyclopropyloxy)phenyl]acetyl}piperidin-4-yl)oxy]-5-(1-methyl-1H-pyrazol-4-yl)benzamide]	8.57 nM
NC(=O)c1cc(-c2cscn2)cnc1OC1CCN(C(=O)Cc2ccc(OC(F)(F)F)cc2)CC1 [Example 180]	8.26 nM
Cn1cc(-c2ccc(OC3CCN(C(=O)Nc4ccc(OC5CC5)cc4)CC3)c(C(N)=O)c2)cn1 [Example 181, 4-[2-carbamoyl-4-(1-methyl-1H-pyrazol-4-yl)phenoxy]-N-[4-(cyclopropyloxy)phenyl]piperidine-1-carboxamide]	19.3 nM
Cn1cc(-c2cnc(OC3CCN(C(=O)Cc4ccc(OC(F)(F)F)cc4)CC3)c(C(N)=O)c2)cn1 [Example 182, 5-(1-methyl-1H-pyrazol-4-yl)-2-[(1-{[4-(trifluoromethoxy)phenyl]acetyl}piperidin-4-yl)oxy]pyridine-3-carboxamide]	15.1 nM
